{"source": "patent US5876751A", "about": "“Antispasmodic and antinflammatory composition and a process for the manufacture thereof” (priority 1996, dated 1999)", "key": {"[1]": {"details": "cited from earlier work"}, "rat colon": {"tested_on": "rat colon", "experiment": "Inhibition of acetylcholine-induced contraction in isolated distal portion of colon of rat, without and with diclofenac sodium", "details": "for inhibition at 0.0005 µg/mL / inhibition at 0.001 µg/mL / inhibition at 0.002 µg/mL / inhibition at 0.01 µg/mL / inhibition at 0.02 µg/mL / inhibition at 0.04 µg/mL / inhibition at 0.08 µg/mL: Rattus norvegicus, Ach 100 ng/ml; for inhibition at 0.0005 µg/mL: fenpiverinium bromide 0.5 ng/ml; for inhibition at 0.001 µg/mL: fenpiverinium bromide 1.0 ng/ml; for inhibition at 0.002 µg/mL: fenpiverinium bromide 2.0 ng/ml; for inhibition at 0.01 µg/mL: pitofenone HCl 10 ng/ml; for inhibition at 0.02 µg/mL: pitofenone HCl 20 ng/ml; for inhibition at 0.04 µg/mL: pitofenone HCl 40 ng/ml; for inhibition at 0.08 µg/mL: pitofenone HCl 80 ng/ml", "description": "In order to see the effect of NSAID on the antispasmodic activity of pitifenone hydrochloride and fenpiverinium bromide an experiment was conducted on standard isolated tissues of experimental animal. The tissue chosen for the experiment was the distal portion of colon of rat. The NSAID selected for the experiment was diclofenac sodium. The percentage inhibition of acetylcholine-induced contraction (at dosage level of 100 ng/m) was studied with varied concentration of pitofenone hydrochloride in the dose range of 10-80 nano gm/ml. […] The data obtained in the experiment is collected in Table -2."}, "[2]": {"details": "in vivo; cited from earlier work"}, "[3]": {"details": "Brogden et al, Drugs 20;24-48 (1980); cited from earlier work"}, "[4]": {"details": "before diclofenac Na, read-out: Percentage inhibition of Ach induced contraction, before diclofenac Na"}, "[5]": {"details": "with diclofenac sodium (20 μgm/ml), read-out: Percentage inhibition of Ach induced contraction, after diclofenac Na"}, "[6]": {"details": "with diclofenac sodium 20 μg/ml, read-out: Percentage inhibition of Ach induced contraction, after diclofenac Na"}}, "note": "Structures can show the parent of a compound that is named as a salt. Where two headings read alike, the source gives them in different places.", "data": [{"smiles": "O=C(O)Cc1ccccc1Nc1c(Cl)cccc1Cl", "note": "[diclofenac sodium]", "values": [{"measurement": "side effects vs pethidine intramuscular", "setting": "[1]; intramuscular, acute renal colic", "result": "fewer side effects"}, {"measurement": "effectiveness in the management of acute renal colic vs pethidine intramuscular", "setting": "[1]; intramuscular", "result": "more effective than narcotic analgesic like pethidine intramuscular"}]}, {"smiles": "C[N+]1(CCC(C(N)=O)(c2ccccc2)c2ccccc2)CCCCC1", "note": "[Fenpiverinium Bromide, fenpiverinium bromide]", "values": [{"measurement": "inhibition at 0.0005 µg/mL", "setting": "rat colon; [4]", "result": 43.8, "unit": "%"}, {"measurement": "inhibition at 0.0005 µg/mL", "setting": "rat colon; [5]", "result": 100, "unit": "%"}, {"measurement": "inhibition at 0.001 µg/mL", "setting": "rat colon; [4]", "result": 78.7, "unit": "%"}, {"measurement": "inhibition at 0.001 µg/mL", "setting": "rat colon; [5]", "result": 100, "unit": "%"}, {"measurement": "inhibition at 0.002 µg/mL", "setting": "rat colon; [4]", "result": 100, "unit": "%"}, {"measurement": "inhibition at 0.002 µg/mL", "setting": "rat colon; [5]", "result": 100, "unit": "%"}]}, {"smiles": "Cc1c(N(C)CS(=O)(=O)O)c(=O)n(-c2ccccc2)n1C", "note": "[Analgin]", "values": [{"measurement": "bone marrow depression", "setting": "[2]", "result": "implicated in causing bone marrow depression"}]}, {"smiles": "O=C(O)Cc1ccccc1Nc1c(Cl)cccc1Cl", "note": "[diclofenac]", "values": [{"measurement": "potentiation of antispasmodic action of pitofenone hydrochloride and fenpiverinium bromide", "setting": "rat colon; general statement of findings", "result": "potentiates the antispasmodic action of pitofenone hydrochloride and fenpiverinium bromide several times"}, {"measurement": "action with pitofenone hydrochloride as an antispasmodic", "setting": "rat colon; rat colon, diclofenac sodium 20 μg/ml, pitofenone HCl 10-80 ng/ml", "result": "synergistic (potentiating) action"}, {"measurement": "action with fenpiverinium bromide as an antispasmodic", "setting": "rat colon; rat colon, diclofenac sodium 20 μgm/ml, fenpiverinium bromide 0.5-2 ng/ml", "result": "synergistic (potentiating) action"}, {"measurement": "use in painful non-rheumatic syndromes", "setting": "[1]; biliary colic (Grossi et al.), acute renal colic (Garcia Alonso et al.)", "result": "of use in painful non-rheumatic syndromes"}, {"measurement": "reported pharmacological activity", "setting": "[3]", "result": "anti inflammatory activity, analgesic activity and anti pyretic activity"}]}, {"smiles": "COC(=O)c1ccccc1C(=O)c1ccc(OCCN2CCCCC2)cc1", "note": "[Pitofenone Hcl, pitofenone hydrochloride]", "values": [{"measurement": "inhibition at 0.01 µg/mL", "setting": "rat colon; [4]", "result": 0, "unit": "%"}, {"measurement": "inhibition at 0.01 µg/mL", "setting": "rat colon; [6]", "result": 100, "unit": "%"}, {"measurement": "inhibition at 0.02 µg/mL", "setting": "rat colon; [4]", "result": 0, "unit": "%"}, {"measurement": "inhibition at 0.02 µg/mL", "setting": "rat colon; [6]", "result": 100, "unit": "%"}, {"measurement": "inhibition at 0.04 µg/mL", "setting": "rat colon; [4]", "result": 0, "unit": "%"}, {"measurement": "inhibition at 0.04 µg/mL", "setting": "rat colon; [6]", "result": 100, "unit": "%"}, {"measurement": "inhibition at 0.08 µg/mL", "setting": "rat colon; [4]", "result": 20.2, "unit": "%"}, {"measurement": "inhibition at 0.08 µg/mL", "setting": "rat colon; [6]", "result": 100, "unit": "%"}]}]}
